From patent US5654280A, “Pharmaceutical composition” (Perstorp AB, priority 1989, dated 1997)
Structures can show the parent of a compound that is named as a salt.

Experiments:
[1] = target: membrane preparation from rat hearts (binding sites of D-myo-inositol-1,2,6-triphosphate); assay: Displacement of tritiated D-myo-inositol-1,2,6-triphosphate from rat heart membrane preparation; details: rat heart membranes, 60 minutes in ice, 50 mM HEPES pH 7.4
Description: A membrane preparation for binding experiments was prepared at 4° C. Remaining blood was removed from fresh rats hearts (approx. 25 g) and the hearts were minced on chilled plates and blended thoroughly with 20 volumes (v/w) of 0.32M sucrose. The mixture was homogenized using a glass homogenizer followed by centrifugation at 800 g for 10 minutes. The supernatant was thereafter recentrifuged at 21000 g for 20 minutes. The resulting pellets were suspended in 20 volumes of ice cold water before homogenization and centrifugation. The supernatant was collected by pipetting followed by recentrifugation. […]
The assay mixtures were incubated for 60 minutes in ice and binding reactions were terminated by centrifugation for 5 minutes. The surface of the pellets were washed with 1 ml of iced 50 mM HEPES buffer (pH 7.4) before measuring the incorporated radioactivity by means of a scintillation counter.
An IC50 value can be determined by calculation of the replacement ratio of the tritiated reference compound at different concentrations of the specific compound. This value represents the concentration needed to replace half the amount of the tritiated reference compound and is expressed as log (conc. of compound). […] Following the above described procedure the binding properties of 1,5-anhydro-D-arabinitol-2,3,4-trisphosphate was determined. […]

[2] = test system: binding sites for phosphorylated compounds in membrane preparation from rat brains; assay: Displacement of tritiated D-myo-inositol-1,3,4,5-tetraphosphate (IP4) from rat brain membrane preparation; details: rat brain plasma membrane fragments saturated with tritiated IP4; remaining radioactivity after addition of compound and washing
Source text: A membrane preparation was obtained from rat brains in a way suitable to provide membrane fragments from plasma membranes. From earlier studies these membrane preparations are known to comprise binding sites for phosphorylated compounds. The physiological role of these binding sites are to regulate for example vascular leakage and oedema formation in the body. The degree of binding of a specific compound to these binding sites predicts the efficiency to counteract vascular leakage in vivo.
The membrane preparation was first saturated with a tritiated control compound. The control compound was D-myo-inositol-1,3,4,5-tetraphosphate (IP4). Addition of a further compound having, increased binding properties, compared to the control compound, will result in a replacement of the control compound and thus in a reduction of the radioactivity in the sample.
The 1,5-anhydro-D-arabinitol-2,3,4-trisphosphate pentakis (cyclohexylammonium) salt obtained in Example 2 was added to a membrane preparation as described above. After washing, the radioactivity was 30% compared to the control compound (IP4), thus showing a significant binding to the preparation.

SMILES | IC50 value (concentration needed to replace half the amount of the tritiated reference compound) [1] | radioactivity after washing compared to the control compound (IP4) [2] [%]
O=P(O)(O)OC1[C@H](OP(=O)(O)O)COC[C@H]1OP(=O)(O)O [1,5-anhydro-D-arabinitol-2,3,4-trisphosphate] | -6.9 log (conc. of compound) | –
O=P(O)(O)OC1[C@H](OP(=O)(O)O)COC[C@H]1OP(=O)(O)O [Example 2, 1,5-anhydro-D-arabinitol-2,3,4-trisphosphate pentakis (cyclohexylammonium) salt] | – | 30
